Reference: patent US20240269291A1, “Transcutol-Polyol-Active Agent Ternary Complex, Pharmaceutical Composition for Topical Use Comprising Same, Method for Obtaining Same and Use Thereof in Different Pathologies” (FUNDACIÓN GAIKER, priority 2021, published 2024)

What was measured:
sick people = test: Application of the cream on sick people; conditions: in vivo
Protocol: In the numerous tests that were carried out on sick people, it has been observed that the introduction of a correct concentration of polyphenols (with “correct” being understood as the fact that there are 200 mg of the polyphenol in each 5 g application of pharmaceutical composition) in a solution for topical use (preferably a cream) has very beneficial effects in treating at least the following pathologies: subcutaneous inflammations such as fasciitis and fasciosis, tendon inflammation or irritation (tendonitis), carpal tunnel inflammation, varicose vein reduction, joint inflammation and blows and bruises.

[1] = printed as negative log P; cited from earlier work
[2] = safety index of 100 times, cited from earlier work

crossing of the blood-brain barrier (sick people) | Compound | log P [1] | recommended limit via the dermal route ([2]; dermal route) | recommended limit via the oral route ([2]; oral route)
able to cross the blood-brain barrier | C[C@@H]1O[C@@H](OC[C@H]2O[C@@H](Oc3c(-c4ccc(O)c(O)c4)oc4cc(O)cc(O)c4c3=O)[C@H](O)[C@@H](O)[C@@H]2O)[C@H](O)[C@H](O)[C@H]1O [rutin] | – | – | –
– | CCOCCOCCO [transcutol, 2-(2-Ethoxyethoxy) ethanol] | ~0.5 | 20 mg/kg | 10 mg/kg
